Data reported in US20250230193A1, “CYCLIC COMPOUND HAVING SELECTIVE KRAS INHIBITORY EFFECT ON HRAS AND NRAS” (CHUGAI SEIYAKU KABUSHIKI KAISHA, priority 2022, published 2025).
*1 amine or outer side, *2 acyl side, *3 side chain or, on linkers, in order; H or OH if unused. Where a SMILES comes first, the peptide text is derived from it. Bridges are numbered along the chain shown (N, C = ends). [ ]: non-standard residue; d: D form. The star is where a group is joined. hPhe(3-Cl-4-CF3) = N[C@@H](CCc1ccc(C(F)(F)F)c(Cl)c1)C(=O)O; NPrPhe(4-CF3) = CCCN[C@@H](Cc1ccc(C(F)(F)F)cc1)C(=O)O; NMeGly(cPent) = CN[C@H](C(=O)O)C1CCCC1; Pro(4,4-F2) = O=C(O)[C@@H]1CC(F)(F)CN1; NMeD = CN[C@@H](CC(=O)O)C(=O)O; NMeL = CN[C@@H](CC(C)C)C(=O)O; X14 = N#CCN(CC(=O)[*:2])[*:1]; NMeNva = CCC[C@H](NC)C(=O)O; Morpholide = C1CN(*)CCO1; Ac5c = NC1(C(=O)O)CCCC1; Aze = O=C(O)[C@@H]1CCN1; Ac4c = NC1(C(=O)O)CCC1; NPrGly = CCCNCC(=O)O; Sar = CNCC(=O)O

Columns and labels:
[1] = target: GDP-bound HRAS wild-type protein (Homo sapiens, UniProt P01112); test: Binding to HRAS by surface plasmon resonance (SPR), Single Cycle Kinetics
Sequence of GDP-bound HRAS wild-type protein (P01112 whole entry): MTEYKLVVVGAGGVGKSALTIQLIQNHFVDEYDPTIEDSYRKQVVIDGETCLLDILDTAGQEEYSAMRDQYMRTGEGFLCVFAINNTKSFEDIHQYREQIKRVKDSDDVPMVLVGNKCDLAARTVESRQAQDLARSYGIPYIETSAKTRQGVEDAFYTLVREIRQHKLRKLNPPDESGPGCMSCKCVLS

[2] = target: GDP-bound NRAS wild-type protein (Homo sapiens, UniProt P01111); test: Binding to NRAS by surface plasmon resonance (SPR), Single Cycle Kinetics
Sequence of GDP-bound NRAS wild-type protein (P01111 whole entry): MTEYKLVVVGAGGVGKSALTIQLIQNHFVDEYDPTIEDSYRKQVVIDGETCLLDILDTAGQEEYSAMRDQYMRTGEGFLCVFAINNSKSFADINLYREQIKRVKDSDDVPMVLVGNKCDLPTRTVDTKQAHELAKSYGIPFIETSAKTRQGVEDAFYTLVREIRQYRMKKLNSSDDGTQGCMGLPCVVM

[3] = KD ratio, GDP-bound HRAS wild-type vs GDP-bound KRAS wild-type, SPR
[4] = KD ratio, GDP-bound NRAS wild-type vs GDP-bound KRAS wild-type, SPR

Q: How did the “HRAS/KRAS (ratio of KD for GDP-bound HRAS wild-type to KD for KRAS)” value ([1]; SPR) turn out when CCCN1C(=O)[C@@H]2CCN2C(=O)CN(CC#N)C(=O)[C@H]([C@@H](C)CC)NC(=O)[C@H](CC(C)C)N(C)C(=O)C[C@@H](C(=O)N2CCOCC2)N(C)C(=O)[C@H](C2CCCC2)N(C)C(=O)C2(CCCC2)NC(=O)[C@@H]2CCCN2C(=O)[C@H](CCc2ccc(C(F)(F)F)c(Cl)c2)NC(=O)CN(C)C(=O)[C@@H]1Cc1ccc(C(F)(F)F)cc1 [PP0275] ([NMeL]I[X14][Aze][NPrPhe(4-CF3)][Sar][hPhe(3-Cl-4-CF3)]P[Ac5c][NMeGly(cPent)][NMeD]-Morpholide; lactam N-11) was run?
A: Its value is “C (A compound having a KD ratio of 0.1 or more and less than 3 is denoted as C)”.

Q: And the “NRAS/KRAS (ratio of KD for GDP-bound NRAS wild-type to KD for KRAS)” value ([2]; SPR)?
A: The value was “C (A compound having a KD ratio of 0.1 or more and less than 3 is denoted as C)”.

Q: With CCC[C@H]1C(=O)N[C@@H]([C@@H](C)CC)C(=O)N(CCC)CC(=O)N(C)CC(=O)N(CCC)[C@@H](Cc2ccc(C(F)(F)F)cc2)C(=O)N(C)CC(=O)N[C@@H](CCc2ccc(C(F)(F)F)c(Cl)c2)C(=O)N2CCC[C@H]2C(=O)NC2(CCC2)C(=O)N(C)[C@@H](C2CCCC2)C(=O)N(C)[C@H](C(=O)N2CCOCC2)CC(=O)N1C [PP1947] ([NMeNva]I[NPrGly][Sar][NPrPhe(4-CF3)][Sar][hPhe(3-Cl-4-CF3)]P[Ac4c][NMeGly(cPent)][NMeD]-Morpholide; lactam N-11) as the molecule, how does the “HRAS/KRAS (ratio of KD value for HRAS to KD value for KRAS)” value [1, 3] read?
A: The value was “B (a compound having 3 or more and less than 10 is denoted as B)”.

Q: What about the “NRAS/KRAS (ratio of KD value for NRAS to KD value for KRAS)” value [2, 4] of the same molecule?
A: The value was “B (a compound having 3 or more and less than 10 is denoted as B)”.

Q: How did the “HRAS/KRAS (ratio of KD for GDP-bound HRAS wild-type to KD for KRAS)” value ([1]; SPR) turn out when CCCN1C(=O)[C@@H]2CCN2C(=O)CN(C)C(=O)[C@H]([C@@H](C)CC)NC(=O)[C@H](CC(C)C)N(C)C(=O)C[C@@H](C(=O)N2CCOCC2)N(C)C(=O)[C@H](C2CCCC2)N(C)C(=O)C2(CCCC2)NC(=O)[C@@H]2CCCN2C(=O)[C@H](CCc2ccc(C(F)(F)F)c(Cl)c2)NC(=O)CN(C)C(=O)[C@@H]1Cc1ccc(C(F)(F)F)cc1 [PP0156] ([NMeL]I[Sar][Aze][NPrPhe(4-CF3)][Sar][hPhe(3-Cl-4-CF3)]P[Ac5c][NMeGly(cPent)][NMeD]-Morpholide; lactam N-11) was run?
A: The value was “B (a compound having 3 or more and less than 10 is denoted as B)”.

Q: What about the “NRAS/KRAS (ratio of KD for GDP-bound NRAS wild-type to KD for KRAS)” value ([2]; SPR) of the same molecule?
A: Its value is “C (A compound having a KD ratio of 0.1 or more and less than 3 is denoted as C)”.

Q: How did the “HRAS/KRAS (ratio of KD value with respect to GDP-bound HRAS wild-type protein to KD value with respect to KRAS)” value ([1]; SPR) turn out when CCO[C@@H]1C[C@H]2C(=O)NC3(CCC3)C(=O)N(C)[C@@H](C3CCCC3)C(=O)N(C)[C@H](C(=O)N(C)C)CC(=O)N(C)[C@@H](C)C(=O)N[C@@H]([C@H](C)CC)C(=O)N(C)CC(=O)N(C)[C@H]3CCCCN(C3=O)[C@@H](Cc3ccc(C(F)(F)F)cc3)C(=O)N(C)CC(=O)N[C@@H](CCc3cc(F)c(C(F)(F)F)c(F)c3)C(=O)N2C1 [PP0730] was run?
A: Its value is “C (A compound having a KD ratio of 0.1 or more and less than 3 is denoted as C)”.

Q: What about the “NRAS/KRAS (ratio of KD value with respect to GDP-bound NRAS wild-type protein to KD value with respect to KRAS)” value ([2]; SPR) of the same molecule?
A: Its value is “C (A compound having a KD ratio of 0.1 or more and less than 3 is denoted as C)”.

Q: With CCO[C@@H]1C[C@H]2C(=O)NC3(CCC3)C(=O)N(C)[C@@H](C3CCCC3)C(=O)N(C)[C@H](C(=O)N3CCOCC3)CC(=O)N(C)[C@@H](Cc3ccccc3C#N)C(=O)N[C@@H]([C@@H](C)CC)C(=O)N(C)CC(=O)N(C)[C@H]3CCCCCN(C3=O)[C@@H](Cc3ccc(C(F)(F)F)cc3)C(=O)N(C)CC(=O)N[C@@H](CCc3cc(F)c(C(F)(F)F)c(F)c3)C(=O)N2C1 [PP1165] as the molecule, how does the “HRAS/KRAS (ratio of KD value with respect to HRAS to KD value with respect to KRAS)” value [1, 3] read?
A: The value was “B (a compound having 3 or more and less than 10 is denoted as B)”.

Q: What about the “NRAS/KRAS (ratio of KD value with respect to NRAS to KD value with respect to KRAS)” value [2, 4] of the same molecule?
A: The value was “A (a compound having 10 or more and less than 20 is denoted as A)”.

Q: For CCCN1C(=O)CN(C)C(=O)CNC(=O)[C@H]([C@@H](C)CC)NC(=O)[C@H](CC(C)C)N(C)C(=O)C[C@@H](C(=O)N(C)C)N(C)C(=O)[C@H](C2CCCC2)N(C)C(=O)C2(CCCC2)NC(=O)[C@@H]2CC(F)(F)CN2C(=O)[C@H](CCc2ccc(C(F)(F)F)c(Cl)c2)NC(=O)CN(C)C(=O)[C@@H]1Cc1ccc(C(F)(F)F)cc1 [PP0419] ([NMeL]IG[Sar][NPrPhe(4-CF3)][Sar][hPhe(3-Cl-4-CF3)][Pro(4,4-F2)][Ac5c][NMeGly(cPent)][NMeD]-NMe2; lactam N-11), which “HRAS/KRAS (ratio of KD value with respect to GDP-bound HRAS wild-type protein to KD value with respect to KRAS)” value ([1]; SPR) is on record?
A: The value was “C (A compound having a KD ratio of 0.1 or more and less than 3 is denoted as C)”.

Q: And the “NRAS/KRAS (ratio of KD value with respect to GDP-bound NRAS wild-type protein to KD value with respect to KRAS)” value ([2]; SPR)?
A: The value was “B (a compound having 3 or more and less than 10 is denoted as B)”.

Q: What does the source list for CCO[C@@H]1C[C@H]2C(=O)NC3(CCC3)C(=O)N(C)[C@@H](C3CCCC3)C(=O)N(C)[C@H](C(=O)N(C)CC)CC(=O)N(C)[C@@H](CC(C)C)C(=O)N[C@@H]([C@@H](C)CC)C(=O)N(C)CC(=O)N(C)[C@H]3C/C=C\CCN(C3=O)[C@@H](Cc3ccc(C(F)(F)F)cc3)C(=O)N(C)CC(=O)N[C@@H](CCc3ccc(C(F)(F)F)c(OC)c3)C(=O)N2C1 [PP2846]?
A: HRAS/KRAS (ratio of KD value with respect to GDP-bound HRAS wild-type protein to KD value with respect to KRAS) ([1]; class symbols): A (a compound having 10 or more and less than 20 is denoted as A); NRAS/KRAS (ratio of KD value with respect to GDP-bound NRAS wild-type protein to KD value with respect to KRAS) ([2]; class symbols): AA (a compound having 20 or more is denoted as AA)
